Data reported in ChEMBL document CHEMBL5226347, “Discovery of Chromane-6-Sulfonamide Derivative as a Potent, Selective, and Orally Available Novel Retinoic Acid Receptor-Related Orphan Receptor γt Inverse Agonist” (J Med Chem, 2021).
Values after ≈ are worked out from the molar mass of the structure shown. Active and inactive are the calls of the source. The calls are words filed in the database; no cut-off is given here.

Legend:
[1] = AUC (0 to t) in mouse at 1 mg/kg, po measured at 5 to 1440 mins by LC-MS analysis; format: ADME, organism-based; set-up: time 5-1440 min, dose 1 mg/kg, route po; conditions: in vivo
[2] = system: Mus musculus; experiment: Antiinflammatory activity against imiquimod-induced Balb/c mouse skin inflammation model assessed as decrease in skin thickening at 10 to 20 mg/kg, po measured for 13 days; format: functional, organism-based; conditions: dose 10-20 mg/kg, time 13.0 day
[3] = Cmax in mouse at 1 mg/kg, po measured at 5 to 1440 mins by LC-MS analysis; format: ADME, organism-based; set-up: time upper 1440 min, time lower 5 min, dose 1 mg/kg, route po; conditions: in vivo
[4] = AUC (0 to infinity) in mouse at 1 mg/kg, po measured at 5 to 1440 mins by LC-MS analysis; format: ADME, organism-based; set-up: dose 1 mg/kg, time 5-1440 min, route po; conditions: in vivo
[5] = Lipophilicity, log D of the compound at pH 7.4; format: physicochemical; conditions: buffer
[6] = Metabolic stability in human liver microsomes assessed as half life incubated for 5 to 30 mins by HPLC-MS/MS analysis; format: ADME, Microsome; conditions: microsomes, time 5-30 min
[7] = system: Mus musculus; experiment: Antiinflammatory activity against imiquimod-induced Balb/c mouse skin inflammation model assessed as inhibition of IL-6 level at 20 mg/kg, po measured for 13 days; format: functional; set-up: scale not given: the % may be the effect or the level left; conditions: time 13 day
[8] = system: Mus musculus; experiment: Antiinflammatory activity against imiquimod-induced Balb/c mouse skin inflammation model assessed as reduction in scaling at 5 to 20 mg/kg, po BID for 13 days; format: functional, organism-based; conditions: dose 5-20 mg/kg, time 13.0 day
[9] = system: Mus musculus; experiment: Antiinflammatory activity against imiquimod-induced Balb/c mouse skin inflammation model assessed as reduction in severity index score at 20 mg/kg, po BID for 13 days; format: functional; set-up: scale not given: the % may be the effect or the level left; conditions: time 13 day
[10] = AUC (0 to infinity) in mouse at 0.3 mg/kg, iv measured at 2 to 1440 mins by LC-MS analysis; format: ADME, organism-based; set-up: dose 0.3 mg/kg, time 2-1440 min, route iv; conditions: in vivo
[11] = Metabolic stability in human liver assessed as intrinsic clearance incubated for 5 to 30 mins by HPLC-MS/MS analysis; format: ADME, tissue-based; conditions: liver (preparation not stated), time 5-30 min, read-out: CLH
[12] = Toxicity in Balb/c mouse assessed as inflammatory cell infiltration at 10 to 20 mg/kg, po administered for 13 days; format: organism-based; conditions: in vivo, 312 h, dose 10-20 mg/kg, time 13 day
[13] = Solubility of compound in aqueous buffer at pH 7.4; format: physicochemical
[14] = Metabolic stability in human liver microsomes assessed as parent compound remaining measured at 60 mins by HPLC-MS/MS analysis; format: ADME, Microsome; conditions: 1 h
[15] = system: Mus musculus; experiment: Antiinflammatory activity against imiquimod-induced Balb/c mouse skin inflammation model assessed as inhibition of IL-17A level at 20 mg/kg, po measured for 13 days; format: functional; set-up: scale not given: the % may be the effect or the level left; conditions: time 13 day
[16] = Clearance in mouse at 0.3 mg/kg, iv measured at 2 to 1440 mins by LC-MS analysis; format: ADME, organism-based; conditions: in vivo, time 2-1440 min
[17] = Half life in mouse at 1 mg/kg, po measured at 5 to 1440 mins by LC-MS analysis; format: ADME, organism-based; conditions: in vivo, time 5-1440 min
[18] = Tmax in mouse at 0.3 mg/kg, iv measured at 2 to 1440 mins by LC-MS analysis; format: ADME, organism-based; conditions: in vivo, time 2-1440 min
[19] = system: Mus musculus; experiment: Antiinflammatory activity against imiquimod-induced Balb/c mouse skin inflammation model assessed as reduction in total psoriasis area at 20 mg/kg, po BID for 13 days; format: functional, organism-based; conditions: time 13.0 day
[20] = AUC (0 to t) in mouse at 0.3 mg/kg, iv measured at 2 to 1440 mins by LC-MS analysis; format: ADME, organism-based; set-up: time lower 2 min, dose 0.3 mg/kg, time upper 1440 min, route iv; conditions: in vivo
[21] = Half life in mouse at 0.3 mg/kg, iv measured at 2 to 1440 mins by LC-MS analysis; format: ADME, organism-based; conditions: in vivo, time 2-1440 min
[22] = molecular target: T1, Nuclear receptor ROR-beta (Homo sapiens, UniProt Q92753); experiment: Inhibition of human GAL4-fused RORbeta LBD transfected in HEK293T cell measured for 16 to 20 hrs by dual-glo luciferase assay; format: cell-based
T1 sequence (Q92753 whole entry): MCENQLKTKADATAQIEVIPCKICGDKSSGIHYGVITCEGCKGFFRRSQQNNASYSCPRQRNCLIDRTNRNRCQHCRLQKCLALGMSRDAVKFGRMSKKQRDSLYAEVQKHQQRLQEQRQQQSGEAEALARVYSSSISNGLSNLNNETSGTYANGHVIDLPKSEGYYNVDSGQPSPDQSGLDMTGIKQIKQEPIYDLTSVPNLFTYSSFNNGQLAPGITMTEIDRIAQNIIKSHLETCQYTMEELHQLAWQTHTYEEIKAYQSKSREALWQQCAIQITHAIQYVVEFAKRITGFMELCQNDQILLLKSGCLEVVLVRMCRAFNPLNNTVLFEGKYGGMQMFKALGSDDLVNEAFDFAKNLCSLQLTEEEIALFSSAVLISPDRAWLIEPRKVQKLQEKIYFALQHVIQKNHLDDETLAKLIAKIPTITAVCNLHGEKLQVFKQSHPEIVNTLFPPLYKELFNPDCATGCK

[23] = Oral bioavailability in mouse at 1 mg/kg measured at 5 to 1440 mins by LC-MS analysis; format: ADME, organism-based; conditions: in vivo, time 5-1440 min
[24] = system: Mus musculus; experiment: Antiinflammatory activity against imiquimod-induced Balb/c mouse skin inflammation model assessed as reduction in skin thickening at 5 to 20 mg/kg, po BID for 13 days; format: functional, organism-based; conditions: dose 5-20 mg/kg, time 13.0 day
[25] = Toxicity in Balb/c mouse assessed as body weight loss at 5 to 20 mg/kg, po administered for 12 days; format: organism-based; conditions: in vivo, 288 h, dose 5-20 mg/kg, time 12 day
[26] = Tmax in mouse at 1 mg/kg, po measured at 5 to 1440 mins by LC-MS analysis; format: ADME, organism-based; conditions: in vivo, time 5-1440 min
[27] = Cmax in mouse at 0.3 mg/kg, iv measured at 2 to 1440 mins by LC-MS analysis; format: ADME, organism-based; set-up: time 2-1440 min, dose 0.3 mg/kg, route iv; conditions: in vivo
[28] = system: Mus musculus; experiment: Antiinflammatory activity against imiquimod-induced Balb/c mouse skin inflammation model assessed as decrease in erythema at 5 to 20 mg/kg, po BID for 13 days; format: functional, organism-based; conditions: dose 5-20 mg/kg, time 13.0 day
[29] = Volume of distribution at steady state in mouse at 0.3 mg/kg, iv measured at 2 to 1440 mins by LC-MS analysis; format: ADME, organism-based; conditions: in vivo, time 2-1440 min, read-out: Vdss

## CCc1ccc(N(C2CCC2)S(=O)(=O)c2ccc3c(c2)C(O)CC(C2CCOCC2)O3)cc1 (centres undefined)
[1]
  AUC(0-t): 285 ng·h/mL
[2]
  Activity: inactive
[3]
  Cmax: 94 ng/mL
[4]
  AUC(0-inf): 298 ng·h/mL
[5]
  logD: 3.69
[6]
  t1/2: 0.817 h
[7]
  Activity: 71.9%
[8]
  Activity: Active
[9]
  Activity: 70.5%
[10]
  AUC(0-inf): 163 ng·h/mL
[11]
  CLint scaled: 27.1 mL/min/kg
[12]
  Activity: Non-Toxic
[13]
  solubility: 8.68 µg/mL (≈ 18.4 µM)
[14]
  Stability: 45.1%
[15]
  Activity: 37.6%
[16]
  clearance: 38.6 mL/min/kg
[17]
  half-life: 1.32 h
[18]
  Tmax: 1.52 h
[19]
  Activity: Active
[20]
  AUC(0-t): 153 ng·h/mL
[21]
  half-life: 0.87 h
[22]
  IC50: > 10 µM
[23]
  bioavailability: 55%
[24]
  Activity: Active
[25]
  Activity: Non-Toxic
[26]
  Tmax: 2.32 h
[27]
  Cmax: 83 ng/mL
[28]
  Activity: Active
[29]
  Vd: 1.54 L/kg
